Results reported in patent US20250090699A1, “FAP TARGETING CYCLIC PEPTIDES AND CONJUGATES THEREOF” (Novartis AG, priority 2023, published 2025).
Where a name gives a salt, the structure may show the parent alone. Starred links: 1 amine or outer side, 2 acyl side, 3 side chain; linkers in the order of their positions; H or OH if unused. Non-standard residues stand in square brackets, D forms with d. Residues, ends and D or L forms follow the SMILES beside them. Groups on a side chain read outwards from the residue. *: point of attachment. F(4amPEG2NHDOTA-Lu) = lutetium complex of (S)-2,2',2''-(10-(1-(4-(2-amino-2-carboxyethyl)phenyl)-3,12-dioxo-5,8-dioxa-2,11-diazatridecan-13-yl)-1,4,7,10-tetraazacyclododecane-1,4,7-triyl)triacetic acid (Phe with 4-aminomethyl-PEG2-DOTA-Lu), O=C([O-])CN1CCN(CC(=O)[O-])CCN(CC(=O)NCCOCCOCC(=O)NCc2ccc(C[C@H](N[*:1])C(=O)[*:2])cc2)CCN(CC(=O)[O-])CC1.[Lu+3]; F4(amMeBAlaDOTALu) = lutetium complex of (S)-2,2',2''-(10-(2-((3-((4-(2-amino-2-carboxyethyl)benzyl)amino)-3-oxopropyl)(methyl)amino)-2-oxoethyl)-1,4,7,10-tetraazacyclododecane-1,4,7-triyl)triacetic acid (Phe with 4-aminomethyl-N-methyl-βAla, CN(CCC(=O)NCc1ccc(C[C@H](N[*:1])C(=O)[*:2])cc1)C(=O)CN1CCN(CC(=O)[O-])CCN(CC(=O)[O-])CCN(CC(=O)[O-])CC1.[Lu+3]; K(COpipzaa) = N6-(4-(carboxymethyl)piperazine-1-carbonyl)-L-lysine, O=C(NCCCC[C@H](N[*:1])C(=O)[*:2])N1CCN(CC(=O)[*:3])CC1; hS(Pr) = O-propyl-L-homoserine, CCCOCC[C@H](N[*:1])C(=O)[*:2]; DOTA = O=C(O)CN1CCN(CC(=O)O)CCN(CC(=O)*)CCN(CC(=O)O)CC1; Phe(4-CH2NH2) = NCc1ccc(C[C@H](N)C(=O)O)cc1; Piperazinyl(4-CH2COOH) = O=C(O)CN1CCN(*)CC1; AEF = NCCOc1ccc(C[C@H](N)C(=O)O)cc1; NMeF = CN[C@@H](Cc1ccccc1)C(=O)O; Ahp(2) = CCCCC[C@H](N)C(=O)O; hSer = N[C@@H](CCO)C(=O)O; CO = O=C([*:1])[*:2]

Assays:
mouse FAP [1] = molecular target: T1, mouse FAP (Mus musculus, UniProt P97321); assay: Surface plasmon resonance (SPR) for peptide affinity, mouse FAP; assay type: binding
T1 construct: biotinylated His, Avi tag, mouse FAP (26-761, FAP-M82Q5); His; Avi tag (biotinylated); purchased AcroBiosystems FAP-M82Q5
T1 sequence (P97321 26-761): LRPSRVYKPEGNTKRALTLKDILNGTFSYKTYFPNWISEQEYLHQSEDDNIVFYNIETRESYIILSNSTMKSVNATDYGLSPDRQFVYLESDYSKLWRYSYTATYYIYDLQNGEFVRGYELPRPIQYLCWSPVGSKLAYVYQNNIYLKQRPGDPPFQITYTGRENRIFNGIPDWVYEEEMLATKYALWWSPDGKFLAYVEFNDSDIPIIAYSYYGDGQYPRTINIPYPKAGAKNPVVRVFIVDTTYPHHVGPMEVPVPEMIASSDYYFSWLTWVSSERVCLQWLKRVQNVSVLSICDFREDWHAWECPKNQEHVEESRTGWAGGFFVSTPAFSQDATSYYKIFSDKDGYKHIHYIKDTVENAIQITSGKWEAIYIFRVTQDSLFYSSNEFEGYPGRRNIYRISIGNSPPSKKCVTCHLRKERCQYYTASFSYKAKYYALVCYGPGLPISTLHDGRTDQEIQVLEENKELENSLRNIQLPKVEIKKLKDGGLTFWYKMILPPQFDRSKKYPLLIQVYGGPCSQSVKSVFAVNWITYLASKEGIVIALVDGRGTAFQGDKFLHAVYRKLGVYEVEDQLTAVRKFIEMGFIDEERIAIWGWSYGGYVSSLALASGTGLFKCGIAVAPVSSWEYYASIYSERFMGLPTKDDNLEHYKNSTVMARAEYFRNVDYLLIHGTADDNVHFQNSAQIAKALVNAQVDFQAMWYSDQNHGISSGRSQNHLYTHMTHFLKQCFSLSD
Description: Peptide affinities (KD) were determined by SPR using a Biacore™ 8K device (Cytiva) towards the following proteins: biotinylated His, Avi tag, human FAP (26-760, FAP-H82Q6), biotinylated His, Avi tag, mouse FAP (26-761, FAP-M82Q5), His tag, human DPP4 (34-766, DP4-H82E3), all purchased from AcroBiosystems and His tag, mouse DPP4 (29-760, 954-SE) from R&D Systems. The FAP proteins and their homologous were diluted to a concentration of 2 μg/mL into acetate buffer pH 5.5, then immobilized onto a CM5 sensorchip (Cytiva, BR-1005-30) to reach a response around 2000 R U. The running buffer HBS-EP+pH 7.6 (20× from Teknova CAT. No: H8022) contained 10 mM HEPES pH 7.6, 150 mM NaCl, 3 mM EDTA, 0.05% Tween20 and 2% DMSO. Experiments were carried out at 25° C. using a flow rate of 30 μL/min. Compounds were tested in single cycle kinetic mode at 8 different concentrations. Curve fitting was performed using the Biacore™ 8K evaluation software. The sensorgrams were fitted by applying a 1:1 binding model to calculate kinetic rate constants and equilibrium dissociation constants (KD).
For this assay, the setup had the same conditions (flow rate, running buffer, peptide dilution) as described above for the CM5 method. The oligo CAP reagent obtained in the CAPture Kit (Ref. 28920234) was 1/5 diluted into running buffer and used with a contact time of 300 s at a flow rate of 2 μL/min. The human and mouse FAP constructs described above were used (from AcroBiosystems or produced in house). The FAP proteins were diluted to a concentration of 2 μg/mL into acetate pH 5.5, 0.05% Tween20 and used with a contact time of 600 s at a flow rate of 10 μL/min. The peptides were tested with an association time of 280 s followed by a dissociation time of 3000 s at a flow rate of 30 μL/min. The regeneration was done using the regeneration solution (8 M guanidine-HCl, 1 M NaOH) as obtained with a contact time of 270 s at a flow rate of 10 μL/min. […] The compounds marked with an asterisk were tested against human and mouse DDP4.

mouse FAP [2] = molecular target: T1, mouse FAP; assay: Enzymatic FAP competition assay (Z-Gly-Pro-AMC fluorescence), mouse FAP; assay type: biochemical; conditions: read-out: m. FAP, Enz., IC50
Description: (§1) Peptide potencies (IC50) to inhibit the FAP enzymatic activity were determined using a fluorescence-based assay towards the biotinylated His, Avi tag, human FAP (26-760, FAP-H82Q6) and the biotinylated His, Avi tag, mouse FAP (26-761, FAP-M82Q5). Standard assay conditions consisted of 20 μL total volume in white 384-well plates (Greiner, Ref. 784075), in 50 mM phosphate buffer pH 7.5 containing 150 mM NaCl, 0.05% Tween20 and 1% final DMSO. Tested peptides at 14 different concentrations up to 1 μM were added to 0.01 nM human or mouse FAP. The peptides were incubated for 24 hours together with the protein before adding the substrate 50 μM Z-Gly-Pro-AMC (I-1145 from Bachem). Samples were then incubated at 22-24° C. for 4 h before reading the fluorescence at excitation wavelength of 380 nm and emission wavelength of 460 nm using the Tecan Infinite® M1000 PRO. The high control (100% activity) was not containing any peptide, and an internal potent peptide was added at 10 μM concentration for the low control (100% inhibition). IC50 values were calculated by curve fitting using an in-house developed software (Novartis Helios software application) using the method described by Fomenko et al., 2006 (regression algorithms for nonlinear dose-response curve fitting). Following normalization of activity values for the wells to % inhibition (% inhibition=[(high control-sample)/(high control-low control)]x 100). IC50 fitting was carried out from the duplicated points.

human FAP = molecular target: T2, human FAP (Homo sapiens, UniProt Q12884); assay: Enzymatic FAP competition assay (Z-Gly-Pro-AMC fluorescence), human FAP; assay type: biochemical; conditions: read-out: h. FAP, Enz., IC50
T2 construct: the biotinylated His, Avi tag, human FAP (26-760, FAP-H82Q6); His; Avi tag (biotinylated); purchased AcroBiosystems FAP-H82Q6
T2 sequence (Q12884 26-760): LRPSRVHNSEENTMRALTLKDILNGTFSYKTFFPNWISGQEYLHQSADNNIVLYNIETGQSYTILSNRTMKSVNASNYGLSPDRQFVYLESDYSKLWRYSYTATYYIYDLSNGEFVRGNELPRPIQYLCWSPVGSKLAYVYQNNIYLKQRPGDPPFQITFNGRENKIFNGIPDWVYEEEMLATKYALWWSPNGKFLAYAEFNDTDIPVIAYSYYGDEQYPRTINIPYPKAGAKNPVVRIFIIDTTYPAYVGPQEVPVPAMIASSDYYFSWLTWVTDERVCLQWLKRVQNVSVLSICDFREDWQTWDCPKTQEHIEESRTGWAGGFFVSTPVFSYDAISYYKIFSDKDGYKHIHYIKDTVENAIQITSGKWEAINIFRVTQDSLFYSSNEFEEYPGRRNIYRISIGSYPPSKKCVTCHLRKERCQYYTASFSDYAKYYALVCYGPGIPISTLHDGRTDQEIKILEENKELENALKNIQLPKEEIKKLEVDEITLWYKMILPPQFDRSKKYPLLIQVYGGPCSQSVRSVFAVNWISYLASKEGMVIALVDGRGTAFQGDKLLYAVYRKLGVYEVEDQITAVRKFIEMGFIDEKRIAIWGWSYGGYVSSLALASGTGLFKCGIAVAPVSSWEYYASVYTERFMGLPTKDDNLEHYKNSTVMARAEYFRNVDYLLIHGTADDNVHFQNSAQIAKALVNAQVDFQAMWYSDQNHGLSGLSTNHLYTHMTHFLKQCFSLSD
Description: as §1

Kd (mouse FAP [1]) | IC50 (mouse FAP [2]) | IC50 (human FAP) | Compound
135 nM | 84 nM | 24 nM | CCCCC[C@@H]1NC(=O)[C@H](Cc2ccc(O)cc2)NC(=O)[C@H](Cc2ccccc2)N(C)C(=O)CNC(=O)CNC(=O)[C@H]2CCCN2C(=O)[C@H](CCCCNC(C)=O)NC(=O)[C@H](Cc2ccc(O)cc2)NC(=O)CNC(=O)[C@H](Cc2c[nH]c3ccccc23)NC1=O [Example A55, Gly-Gly-NMePhe-Tyr-Ahp-Trp-Gly-Tyr-K(Ac)-D-Pro] (cyclo([Ahp(2)]WGYK(Ac)[dP]GG[NMeF]Y))
2.2 nM | 2.8 nM | 0.5 nM | CCCCC[C@@H]1NC(=O)[C@H](Cc2ccc(OCCN)cc2)NC(=O)[C@H](Cc2ccccc2)N(C)C(=O)CNC(=O)[C@H](CCCCNC(=O)N2CCN(CC(=O)O)CC2)NC(=O)[C@H]2CCCN2C(=O)[C@H](CC(=O)O)NC(=O)[C@H](Cc2ccc(O)cc2)NC(=O)CNC(=O)[C@H](Cc2c[nH]c3ccccc23)NC1=O [Example A46, K(COpipzaa)-Gly-NMePhe-F(4OEtNH2)-Ahp-Trp-Gly-Tyr-Asp-D-Pro, TFA salt] (cyclo([AEF][Ahp(2)]WGYD[dP]K([CO-Piperazinyl(4-CH2COOH)])G[NMeF]))
< 0.084 nM | 0.049 nM | 0.019 nM | Glu-Gly-NMePhe-F(4amPEG2NHDOTA-Lu)-hS(Pr)-Trp-Gly-K(COpipzaa)-Asp-D-Pro (cyclo(EG[NMeF][F(4amPEG2NHDOTA-Lu)][hS(Pr)]WG[K(COpipzaa)]D[dP]); also: Lu complex of DOTA) [Example C5]
0.48 nM | 0.6 nM | 0.181 nM | CCCCC[C@@H]1NC(=O)[C@H](Cc2ccc(OCCN)cc2)NC(=O)[C@H](Cc2ccccc2)N(C)C(=O)CNC(=O)[C@H](CCO)NC(=O)[C@H]2CCCN2C(=O)[C@H](CC(=O)O)NC(=O)[C@H](Cc2ccc(O)cc2)NC(=O)CNC(=O)[C@H](Cc2c[nH]c3ccccc23)NC1=O [Example A47, hSer-Gly-NMePhe-F(4OEtNH2)-Ahp-Trp-Gly-Tyr-Asp-D-Pro, TFA salt] (cyclo([AEF][Ahp(2)]WGYD[dP][hSer]G[NMeF]))
0.028 nM | 0.024 nM | 0.009 nM | Gly-Gly-NMePhe-F4(amMeBAlaDOTALu)-Ahp-Trp-Gly-Tyr-Asp-D-Pro (cyclo(GG[NMeF][F4(amMeBAlaDOTALu)][Ahp(2)]WGYD[dP]); also: Lu complex) [Example C11]

Compound | Kd (mouse FAP [1]) | IC50 (mouse FAP [2]) | IC50 (human FAP)
CCCCC[C@@H]1NC(=O)[C@H](Cc2ccc(CNC(=O)CN3CCN(CC(=O)O)CCN(CC(=O)O)CCN(CC(=O)O)CC3)cc2)NC(=O)[C@H](Cc2ccccc2)N(C)C(=O)CNC(=O)CNC(=O)[C@H]2CCCN2C(=O)[C@H](CC(=O)O)NC(=O)[C@H](Cc2ccc(O)cc2)NC(=O)CNC(=O)[C@H](Cc2c[nH]c3ccccc23)NC1=O [Example B17, Gly-Gly-NMePhe-F(4amDOTA)-Ahp-Trp-Gly-Tyr-Asp-D-Pro, TFA salt] (cyclo([Ahp(2)]WGYD[dP]GG[NMeF][Phe(4-CH2NH2)](DOTA))) | 0.133 nM | 0.158 nM | 0.033 nM
